Entries after “also recorded” stand apart in the source; their conditions may differ.
What was measured:
Pex7 null animals = details: very high doses (over 3000 mg/kg); cited from earlier work
Pex7 hypomorphic animals = details: 50 mg/kg/day for 2 months; cited from earlier work
Pex7 hypomorph/null mice [1] = assay: 4 weeks oral treatment of Pex7 hypomorph/null animals: plasmalogen levels in plasma and tissues; type: in vivo, mouse; details: 50 mg/kg oral gavage, 5 days per week
From the text: (§1) The Pex7 hypomorph/null model is a hypomorphic (B6;129S6-Pex7^tm2.3Brav/s9) mouse model on a mixed background (C57BL/6NCrl and 129S6/SvEvTac). The hypomorphic allele in Pex7 hypomorph/null was generated by inserting an inverse neo cassette into intron 2 and lox P sites surrounding exon 3. The Pex7 null allele was generated using (B6.C-Tg(cmv-cre)1Cgn/J) mouse. The Pex7 hypomorph/null mouse model has 90% survival, 0.016-0.257% of wild type Pex7 mRNA levels and 20-30% plasmalogen levels Pex7 hypomoprh/null mice (3-4 months); and wild-type animals, males and females included in treatments and behavioral tests. Pex7 hypomorph/null mice were randomly assigned, after a baseline open field test, into 3 treatment groups: PPI-1040, PPI-1011, and vehicle controls, n=6 mice per group). PPI-1011 or PPI-1040 at 50 mg/kg was given by oral gavage 5 days per week (Monday-Friday) for 4 weeks. During the treatment period, animals were weighed weekly and observed for signs of distress. The open field test was performed at the end of treatment. To avoid selection bias, data analysis was performed only at the study end. Animals were sacrificed after a 24-hour post the last dose.
Tissue samples frozen by submersion in liquid nitrogen were homogenized using the Covaris Cryoprep resulting in a fine powder. The powder was then aliquoted using anti-static polypropylene disposable milligram scoops (TWD Tradewinds) resulting in 4-6 mg of tissue per 1.4 ml Thermo matrix tubes. Weights were recorded and metabolite levels were normalized per mg of tissue. HPLC grade water (50 μl) was added into each tube and samples were snap frozen in liquid nitrogen and then stored at −80° C. until extraction. On the day of the extraction, tissue samples were thawed to room temperate and sonicated for 15 mins in an ice bath before mixing at 2000 rpm for a 5 minute and then adding 600 μL of ethyl acetate. Lipids were extracted into ethyl acetate by mixing at 1750 rpm for 1 hr followed by a 10 min centrifugation at 3500 rpm to obtain a clear ethyl acetate layer. Tissue lipid extracts were diluted into an ethyl acetate stock (brain regions diluted 1:10, peripheral tissues 1:5) containing labeled internal standard [^13C-PlsEtn (C37^13C6H74NO7P). Water (40 μL) was added to the diluted extracts and samples were stirred at 1500 rpm for 1 hr followed by a 2 min centrifugation at 3500 rpm.
Plasma extraction was performed on 20 μL aliquots in 1.4 ml Thermo matrix tubes. Lipids were extracted by adding HPLC grade water (50 μl) and ethyl acetate containing labeled internal standard [^13C-PlsEtn (C37^13C6H74NO7P) at 0.2 μg/mL (500 μL) to each plasma sample and then mixing at 1750 rpm for 1 hr followed by a 2 min centrifugation at 3500 rpm for phase separation.
A 100 μL aliquot of the ethyl acetate layer was analyzed using FI-MS/MS on a API4000™ mass spectrometer (Applied Biosystems) coupled with Agilent 1100 HPLC pump and auto sampler. Each transition was scanned for 50 ms with a total acquisition time per sample of 2 min. ethyl acetate:methanol:water ratio of 80:15:5 at a flow rate of 600 μL/min was used as the mobile phase. All standards and stable isotopes used were >95% pure and manufactured by Med-Life Discoveries LP. All the solvents used above were HPLC grade. All samples were analyzed in triplicate to control for any variation resulting from instrument variability. Stable isotope ratios for each analyte were calculated for all tissue and plasma samples (Table 2).

[2] = test system: Pex7 homozygous hypomorphic animals (Pex7^neo/neo); assay: 2 week comparison of plasmalogen precursors: plasmalogen levels in plasma and liver (LC-MS); type: in vivo, mouse
Method: Pex7 homozygous hypomorphic animals (Pex7^neo/neo) were used as a model of rhizomelic chondrodysplasia punctata (RCDP). Mice were dosed with either PPI-1011 or PPI-1040 at equimolar concentrations of 100 mg/Kg and 89.7 mg/Kg respectively. PPI-1011 was formulated in Neobee M-5, at a concentration of 12.5 mg/mL and stored at −20° C. until the first treatment day after which point the remaining formulation was stored at 4° C. Oral gavage volumes were adjusted by mouse weight to ensure a 100 mg/kg dose. PPI-1040 was stored in a sealed ampoule in solution with dichloromethane under argon gas until immediately before use. At time of treatment the ampoule was opened and dichloromethane was evaporated off under nitrogen gas for 10 minutes. Neobee M-5 was then added and the solution and vortexed to generate a 22.4 mg/mL formulation. Animals were dosed via intraperitoneal injections with doses adjusted by weight to ensure an 89.7 mg/Kg dose to each animal. Animals were sacrificed 24 hours after the ninth treatment (week 1-Monday to Friday and week 2-Monday to Thursday). Blood samples were collected in EDTA tubes and then spun down in a clinical centrifuge. Plasma samples were stored at −80° C. until thawed for analysis. Tissue samples were harvested and flash frozen in liquid nitrogen and then stored at −80° C. All tissue samples were homogenized using liquid nitrogen, generating a fine powder.
Plasma aliquots of 20 μL were analyzed, while tissues were aliquoted with anti-static polypropylene disposable milligram scoops prior to analysis. Water (200 μL) was added and samples were ice bath sonicated for 30 mins prior to the addition of 600 μL of ethyl acetate. Samples were mixed at 2000 rpm for 15 mins followed by a 10 min centrifugation at 3500 rpm. Tissue samples were diluted into an ethyl acetate (1:4) containing labeled internal standards [^13C-PlsEtn (C37^13C6H74NO7P) and ^13C-PtdEtn (C24^13C19H74NO8P)]. Water (80 μL) was added and samples were again stirred at 2000 rpm for 15 mins followed by a 2 min centrifugation at 3500 rpm. High-throughput analysis method was based on multiple reaction monitoring of one parent/fragment transition for the ion pairs, performed using liquid chromatography-mass spectrometry.

[3] = healthy animals; cited from earlier work
Pex7 hypomorphic mice = details: 13C-labeled version of PPI-1011; cited from earlier work
Pex7 hypomorph/null mice [4] = assay: Open field test after 4 weeks oral treatment; type: in vivo, mouse; details: 50 mg/kg oral gavage, 5 days per week, 5 minutes test
From the text: as §1
The open field test is a behavioral test used to evaluate the general locomotor activity, exploratory and anxiety-like behaviour of mice in response to a novel environment. The animal is placed inside a custom made square, gray acrylic box measuring 40×40×40 cm and allowed to move freely for 5 minutes while being recorded by an overhead camera (camera model). The footage was analyzed by an automated tracking system (Any-maze Video Tracking Software, Stoelting Co, Wood Dale, Ill., USA), for total distance traveled (meters) & activity (mobility in seconds) time. The total distance traveled is the total distance that animal traveled during the test and the activity measures the amount of time the animal was active during the test.

[5] = PPI-1011 100 mg/Kg oral or PPI-1040 89.7 mg/Kg intraperitoneal, 2 weeks

Structure (SMILES)	plasmalogen levels in brain and nervous system tissues (Pex7 null animals)	plasmalogen levels in erythrocytes and peripheral tissues (Pex7 null animals)	clinical improvement (Pex7 hypomorphic animals)	plasmalogen content in red blood cells (Pex7 hypomorphic animals)	liver plasmalogen levels (Pex7 hypomorph/null mice [1])	plasma plasmalogen levels (all species measured) (Pex7 hypomorph/null mice [1])	plasmalogen levels in tissues (peripheral and brain) (Pex7 hypomorph/null mice [1])	levels of the target plasmalogen (16:0/22:6) in the plasma ([2]; PPI-1011 100 mg/Kg oral gavage, 2 weeks (9 treatments))	16:0 plasmalogen pool in liver [2, 5]	target plasmalogen (16:0/22:6) levels in liver [2, 5]	oral bioavailability [3]	plasma and tissue PlsEtn levels [3]	incorporation of labeled plasmalogen into nervous system tissue (Pex7 hypomorphic mice)	incorporation of labeled plasmalogen into tissues (Pex7 hypomorphic mice)	open field: time active (Pex7 hypomorph/null mice [4])	open field: total distance traveled (Pex7 hypomorph/null mice [4])
CCCCCCCCCCCCCCCCCCOCC(O)CO (racemic) [Batyl alcohol, 1-O-octadecyl-rac glycerol]	very limited increases	augmentation of plasmalogen levels in erythrocytes and peripheral tissues	not associated with clinical improvement	partial increase	–	–	–	–	–	–	–	–	–	–	–	–
CC/C=C\C/C=C\C/C=C\C/C=C\C/C=C\C/C=C\CCC(=O)OC(COCCCCCCCCCCCCCCCC)COC(=O)CCCC[C@@H]1CCSS1 (stereo partly shown) [PPI-1011, reference compound]	–	–	–	–	did not increase the levels of any plasmalogen species in the liver	did not result in significant augmentation of any plasmalogen species measured; also recorded: ineffective at augmenting plasmalogen levels; also recorded: significantly below baseline	did not increase the levels of any plasmalogen species in any of the tissues tested	increase observed	no increase in this pool was observed	unable to augment levels to control levels	orally bioavailable	capable of augmenting plasma and tissue PlsEtn levels	low	incorporated into peripheral tissues, as well as the neocortex and eye	did not result in a decrease in activity levels	did not result in a decrease in activity levels

Source: US11311560B2, “Cyclic plasmenylethanolamines” (MED-LIFE DISCOVERIES LP, priority 2017, dated 2022)
